Columns and labels:
Smn protein = Smn protein assay (HTRF) in cultured cells (SMA patient fibroblasts GM03813); assay type: cell-based, human; settings: 48 hours; for EC1.5x for Smn protein expression: SMA patient fibroblast cells (GM03813), HTRF, 7-point concentration data, concentration producing 1.5 times Smn protein vs DMSO vehicle control; for maximum fold (Fold) increase of Smn protein: SMA patient fibroblast cells, 7-point concentration curve, relative to vehicle control
Description: The Smn HTRF (homogeneous time resolved fluorescence) assay is used to quantify the level of Smn protein in SMA patient fibroblast cells treated with test compounds.
Cells are thawed and cultured in DMEM-10% FBS for 72 hours. Cells are trypsinized, counted and re-suspended to a concentration of 25,000 cells/mL in DMEM-10% FBS. The cell suspension is plated at 5,000 cells per well in a 96 well microtiter plate and incubated for 3 to 5 hours. […] Test compounds are serially diluted 3.16-fold in 100% DMSO to generate a 7-point concentration curve. 1 μL of test compound solution is transferred to cell-containing wells and cells are incubated for 48 hours in a cell culture incubator (37° C., 5% CO2, 100% relative humidity). Triplicate samples are set up for each test compound concentration. After 48 hours, the supernatant is removed from the wells and 25 μL of the RIPA lysis buffer, containing protease inhibitors, is added to the wells and incubated with shaking at room temperature for 1 hour. 25 μL of the diluent is added and then 35 μL of the resulting lysate is transferred to a 384-well plate, where each well contains 5 μL of the antibody solution (1:100 dilution of anti-SMN d2 and anti-SMN kryptate in SMN reconstitution buffer). The plate is centrifuged for 1 minute to bring the solution to the bottom of the wells, then incubated overnight at room temperature. Fluorescence for each well of the plate at 665 nm and 620 nm is measured on an EnVision multilabel plate reader (Perkin-Elmer).
The normalized fluorescence signal is calculated for each sample, Blank and vehicle control well by dividing the signal at 665 nm by the signal at 620 nm. Normalizing the signal accounts for possible fluorescence quenching due to the matrix effect of the lysate. The ΔF value (a measurement of Smn protein abundance as a percent value) for each sample well is calculated by subtracting the normalized average fluorescence for the Blank control wells from the normalized fluorescence for each sample well, then dividing this difference by the normalized average fluorescence for the Blank control wells and multiplying the resulting value by 100. The ΔF value for each sample well represents the Smn protein abundance from test compound-treated samples. The ΔF value for each sample well is divided by the ΔF value for the vehicle control wells to calculate the fold increase in Smn protein abundance relative to the vehicle control.

[1] = system: SMN2 minigene mRNA (SMN2-A minigene construct); assay: SMN2 minigene mRNA splicing RT-qPCR assay in cultured cells; assay type: cell-based, human; settings: Homo sapiens, HEK293-H; HEK293H cells stably transfected with SMN2-A minigene, 24 hours, 7-point concentration data; concentration giving 1.5-fold SMN2 full length mRNA relative to vehicle-treated cells; read-out: EC1.5x for production of full length SMN2 mRNA
Description: The reverse transcription-quantitative PCR-based (RT-qPCR) assay is used to quantify the level of the full length SMN2 minigene mRNA containing SMN2 exon 7 in a HEK293H cell line stably transfected with said minigene and treated with a test compound.
HEK293H cells stably transfected with the SMN2-A minigene construct described above (10,000 cells/well) are seeded in 200 μL of cell culture medium (DMEM plus 10% FBS, with 200 μg/mL hygromycin) in 96-well flat-bottom plates and the plate is immediately swirled to ensure proper dispersal of cells, forming an even monolayer of cells. Cells are allowed to attach for at least 4-6 hours. Test compounds are serially diluted 3.16-fold in 100% DMSO to generate a 7-point concentration curve. A solution of test compound (1 μL, 200× in DMSO) is added to each cell-containing well and the plate is incubated for 24 hours in a cell culture incubator (37° C., 5% CO2, 100% relative humidity). Two replicates are prepared for each test compound concentration. The cells are then lysed in Cells-To-Ct lysis buffer and the lysate is stored at −80° C.
Primer SMN Forward A (SEQ ID NO. 1) hybridizes to a nucleotide sequence in exon 7 (nucleotide 22 to nucleotide 40), primer SMN Reverse A (SEQ ID NO. 2) hybridizes to a nucleotide sequence in the coding sequence of Firefly luciferase, SMN Probe A (SEQ ID NO. 3) hybridizes to a nucleotide sequence in exon 7 (nucleotide 50 to nucleotide 54) and exon 8 (nucleotide 1 to nucleotide 21). The combination of these three oligonucleotides detects only SMN1 or SMN2 minigenes (RT-qPCR) and will not detect endogenous SMN1 or SMN2 genes.
The SMN forward and reverse primers are used at final concentrations of 0.4 μM. The SMN probe is used at a final concentration of 0.15 μM. The GAPDH primers are used at final concentrations of 0.2 μM and the probe at 0.15 μM.
The SMN2-minigene GAPDH mix (15 μL total volume) is prepared by combining 7.5 μL of 2×RT-PCR buffer, 0.4 μL of 25×RT-PCR enzyme mix, 0.75 μL of 20×GAPDH primer-probe mix, 4.0075 μL of water, 2 μL of 10-fold diluted cell lysate, 0.06 μL of 100 μM SMN forward primer, 0.06 μL of 100 μM SMN reverse primer, and 0.225 μL of 100 μM SMN probe.
PCR is carried out at the following temperatures for the indicated time: Step 1: 48° C. (15 min); Step 2: 95° C. (10 min); Step 3: 95° C. (15 sec); Step 4: 60° C. (1 min); then repeat Steps 3 and 4 for a total of 40 cycles.
Each reaction mixture contains both SMN2-A minigene and GAPDH primers/probe sets (multiplex design), allowing simultaneous measurement of the levels of two transcripts.
Two SMN spliced products are generated from the SMN2 minigene. The first spliced product containing exon 7, corresponding to SMN2 full length mRNA, is referred to herein using the term “SMN2 minigene FL.” The second spliced product lacking exon 7 is referred to herein using the term “SMN2 minigene Δ7.”
The increase of SMN2 minigene FL mRNA relative to that in cells treated with vehicle control is determined from real-time PCR data using a modified ΔΔCt method (as described in Livak and Schmittgen, Methods, 2001, 25:402-8). The amplification efficiency (E) is calculated from the slope of the amplification curve for SMN2 minigene FL and GAPDH individually. The abundances of SMN2 minigene FL and GAPDH are then calculated as (1+E)^−Ct, where Ct is the threshold value for each amplicon. The abundance of SMN2 minigene FL is normalized to GAPDH abundance. The normalized SMN2 minigene FL abundance from test compound-treated samples is then divided by normalized SMN2 minigene FL abundance from vehicle-treated cells to determine the level of SMN2 FL mRNA relative to vehicle control.

| Compound | EC1.5x for Smn protein expression (Smn protein) | maximum fold (Fold) increase of Smn protein (Smn protein) | EC (1.5-fold) [1] |
| --- | --- | --- | --- |
| Cl.O=c1oc2nc(N3CCNCC3)ccc2cc1-c1nc2c(Cl)cccc2s1 [Cpd 2, 3-(4-chloro-1,3-benzothiazol-2-yl)-7-(piperazin-1-yl)-2H-pyrano[2,3-b]pyridin-2-one hydrochloride] | **** (an EC1.5×≦0.3 μM is indicated by four stars (****)) | ***** (a fold increase >1.65 is indicated by five stars (*****)) | ≤ 0.1 µM |
| O=c1oc2nc(N3CCN(CCCl)CC3)ccc2cc1-c1nc2ccccc2s1 [Cpd 4, 3-(1,3-benzothiazol-2-yl)-7-[4-(2-chloroethyl)piperazin-1-yl]-2H-pyrano[2,3-b]pyridin-2-one] |  | ** (a fold increase between >1.2 and ≦1.35 is indicated by two stars (**)) | 1 to 3 µM |
| CC(C)(C)OC(=O)N1CCN(c2cc3oc(=O)c(-c4nc5ccccc5s4)cc3cn2)CC1 [Cpd 7, tert-butyl 4-[3-(1,3-benzothiazol-2-yl)-2-oxo-2H-pyrano[3,2-c]pyridin-7-yl]piperazine-1-carboxylate] |  | * (A maximum fold increase ≦1.2 is indicated by one star (*)) | 3 to 30 µM |
| CC(C)(C)OC(=O)N1CCN(c2cc3oc(=O)c(-c4nc5c(Cl)cccc5s4)cc3cn2)CC1 [Cpd 8, tert-butyl 4-[3-(4-chloro-1,3-benzothiazol-2-yl)-2-oxo-2H-pyrano[3,2-c]pyridin-7-yl]piperazine-1-carboxylate] | * (An EC1.5× for Smn protein expression between >3 μM and ≦10 μM is indicated by one star (*)) | ***** (a fold increase >1.65 is indicated by five stars (*****)) | 3 to 30 µM |
| CN1CCN(c2cc3oc(=O)c(-c4nc5ccccc5s4)cc3cn2)CC1 [Cpd 14, 3-(1,3-benzothiazol-2-yl)-7-(4-methylpiperazin-1-yl)-2H-pyrano[3,2-c]pyridin-2-one] |  | * (A maximum fold increase ≦1.2 is indicated by one star (*)) | 3 to 30 µM |
| Cl.O=c1oc2nc(N3CCNCC3)ccc2cc1-c1cn2ccccc2n1 [Cpd 28, 3-(imidazo[1,2-a]pyridin-2-yl)-7-(piperazin-1-yl)-2H-pyrano[2,3-b]pyridin-2-one hydrochloride] |  | *** (a fold increase between >1.35 and ≦1.5 is indicated by three stars (***)) | 0.1 to 0.3 µM |
| Cc1ccc2nc(-c3cc4cnc(N5CCNCC5)cc4oc3=O)cn2c1 [Cpd 33, 3-(6-methylimidazo[1,2-a]pyridin-2-yl)-7-(piperazin-1-yl)-2H-pyrano[3,2-c]pyridin-2-one] | * (An EC1.5× for Smn protein expression between >3 μM and ≦10 μM is indicated by one star (*)) | *** (a fold increase between >1.35 and ≦1.5 is indicated by three stars (***)) | 1 to 3 µM |
| Cc1cc(Cl)c2nc(-c3cc4cnc(N5CCNCC5)cc4oc3=O)cn2c1.Cl [Cpd 35, 3-(8-chloro-6-methylimidazo[1,2-a]pyridin-2-yl)-7-(piperazin-1-yl)-2H-pyrano[3,2-c]pyridin-2-one hydrochloride] |  | ** (a fold increase between >1.2 and ≦1.35 is indicated by two stars (**)) | 3 to 30 µM |
| Cc1ccn2cc(-c3cc4cnc(N5CCNCC5)cc4oc3=O)nc2c1.Cl [Cpd 40, 3-(7-methylimidazo[1,2-a]pyridin-2-yl)-7-(piperazin-1-yl)-2H-pyrano[3,2-c]pyridin-2-one hydrochloride] |  | ** (a fold increase between >1.2 and ≦1.35 is indicated by two stars (**)) | 0.3 to 1 µM |
| Cc1cn2cc(-c3cc4cnc(N5CCNCC5)cc4oc3=O)nc2s1.Cl [Cpd 41, 3-(2-methylimidazo[2,1-b][1,3]thiazol-6-yl)-7-(piperazin-1-yl)-2H-pyrano[3,2-c]pyridin-2-one hydrochloride] |  | ** (a fold increase between >1.2 and ≦1.35 is indicated by two stars (**)) | 0.3 to 1 µM |
| Cc1ccn2nc(-c3cc4ccc(N5CCNCC5)nc4oc3=O)cc2c1.Cl [Cpd 43, 3-(5-methylpyrazolo[1,5-a]pyridin-2-yl)-7-(piperazin-1-yl)-2H-pyrano[2,3-b]pyridin-2-one hydrochloride] | **** (an EC1.5×≦0.3 μM is indicated by four stars (****)) | **** (a fold increase between >1.5 and ≦1.65 is indicated by four stars (****)) | 0.1 to 0.3 µM |
| Cl.O=c1oc2nc(N3CCNCC3)ccc2cc1-c1cn2ccsc2n1 [Cpd 44, 3-(imidazo[2,1-b][1,3]thiazol-6-yl)-7-(piperazin-1-yl)-2H-pyrano[2,3-b]pyridin-2-one hydrochloride] | ** (an EC1.5× between >1 and ≦3 μM is indicated by two stars (**)) | *** (a fold increase between >1.35 and ≦1.5 is indicated by three stars (***)) | ≤ 0.1 µM |
| Cc1ccn2cc(-c3cc4cnc(N5CCN(C)CC5)cc4oc3=O)nc2c1 [Cpd 57, 3-(7-methylimidazo[1,2-a]pyridin-2-yl)-7-(4-methylpiperazin-1-yl)-2H-pyrano[3,2-c]pyridin-2-one] |  | ** (a fold increase between >1.2 and ≦1.35 is indicated by two stars (**)) | 0.3 to 1 µM |
| Cc1ccn2cc(-c3cc4ccc(N5CCN[C@@H](C)C5)nc4oc3=O)nc2c1 [Cpd 58, 3-(7-methylimidazo[1,2-a]pyridin-2-yl)-7-[(3S)-3-methylpiperazin-1-yl]-2H-pyrano[2,3-b]pyridin-2-one] | **** (an EC1.5×≦0.3 μM is indicated by four stars (****)) | **** (a fold increase between >1.5 and ≦1.65 is indicated by four stars (****)) | ≤ 0.1 µM |
